Laboratory results from PMC9866218, “Characterization and Chemical Synthesis of Cm39 (α-KTx 4.8): A Scorpion Toxin That Inhibits Voltage-Gated K^+ Channel KV1.2 and Small- and Intermediate-Conductance Ca^2+-Activated K^+ Channels KCa2.2 and KCa3.1” (Toxins, 2023).
“Also recorded” adds a separate entry of the source.

Key:
hKV11.1 = assay: Whole-cell patch-clamp, block of KV11.1 (hERG1) current; type: cell-based, human; details: HEK 293 cells
Source text: (§1) We, therefore, aimed at testing the pharmacological activity of sCm39 on a battery of various potassium and sodium ion channels. Among the tested channels were six members of human voltage-gated K^+ (hKV) channels from Shaker family, hKV1.1-hKV1.6 (Figure 3A–F) and three members of Ca^2+-activated potassium channel; hKCa2.2 (SK2, Figure 3I), the small-conductance Ca^2+-activated channel; hKCa3.1 (IKCa1, SK4. Figure 3J), the intermediate-conductance Ca^2+-activated channel expressed in T lymphocytes; and mKCa1.1 (BK, Slo1, MaxiK, Figure 3H), the large-conductance voltage- and Ca^2+-activated channel of mice. In addition, we also screened the effect of Cm39 on hKV11.1 (hERG1, Figure 3G), a voltage-gated cardiac K^+ channel, and two human voltage-gated sodium (hNaV) channels, hNaV1.4 (Figure 3K) and hNaV1.5 (Figure 3L), expressed in skeletal and cardiac muscles, respectively. These ion channels were heterologously expressed in the CHO or HEK cell lines except for KV1.3. Human peripheral T lymphocytes. […]
Whole-cell currents were recorded in voltage-clamped cells following standard protocols by using a Multiclamp 700B amplifier connected to a computer with Axon Digidata1440 digitizer and for data acquisition, Clampex 10.7 software was used (Molecular Devices). […]

hKV1.5 = assay: Whole-cell patch-clamp, block of KV1.5 current; type: cell-based, human; details: CHO cells
Source text: as §1, with “lymphocytes. They were stimulated with Phytohemagglutinin A (PHA) to increase the KV1.3 channel expression, and Ca^2+-free intracellular solution was used to avoid KCa3.1 channel activation.” for “lymphocytes.”
Those plasmids which lack a fluorescent tag were co-transfected with a plasmid encoding GFP. […] Generally, currents were recorded 24 to 48 h post transfection. […]

CC[C@H](C)[C@@H]1NC(=O)[C@H](C)NC(=O)[C@H](C)NC(=O)[C@H](CCCCN)NC(=O)[C@@H]2CSSC[C@@H](C(=O)N[C@@H](Cc3ccc(O)cc3)C(=O)N[C@@H](Cc3ccc(O)cc3)C(=O)O)NC(=O)[C@H](CCCCN)NC(=O)[C@@H]3CSSC[C@H](NC(=O)[C@H](CCC(=O)O)NC(=O)[C@H](CO)NC(=O)[C@H](CO)NC(=O)[C@H](CO)NC(=O)[C@H](CCCCN)NC(=O)[C@@H](NC(=O)[C@H](CCCCN)NC(=O)[C@H](Cc4c[nH]cn4)NC(=O)[C@H](CC(N)=O)NC(=O)[C@@H](NC(=O)[C@H](Cc4ccccc4)NC(=O)[C@@H](N)[C@@H](C)O)[C@@H](C)CC)CSSC[C@H](NC(=O)[C@H](CCCCN)NC(=O)CNC(=O)[C@H](CO)NC(=O)[C@H](C)NC(=O)[C@H](CCCNC(=N)N)NC(=O)CNC1=O)C(=O)N[C@@H]([C@@H](C)CC)C(=O)N[C@@H](CC(N)=O)C(=O)N[C@@H](CO)C(=O)N[C@@H]([C@@H](C)O)C(=O)N3)C(=O)N[C@@H](CC(C)C)C(=O)N1CCC[C@H]1C(=O)N[C@@H](C)C(=O)N2 [Cm39]
inhibition (in words) (hKV11.1; 1 μM): does not inhibit; also recorded: did not show any effect
decrease in current (hKV11.1; 1 µM, 3−5 min, n = 3−5): < 3%
inhibition (in words) (hKV1.5; 1 μM): does not inhibit; also recorded: did not show any effect
decrease in current (hKV1.5; 1 µM, 3−5 min, n = 3−5): < 3%
